Results: the NIST ThermoML archive (doi:10.1016/j.jct.2017.06.006)

Test: mn = molality of the nth substance listed, in mol/kg
Settings: 100 kPa, Liquid, Vibrating tube method

CCCCn1cc[n+](C)c1C.[Br-] [1-butyl-2,3-dimethylimidazolium bromide] + O
m1 = 0.1
Settings	mass density [kg/m3]
283.15 K	1004.75
288.15 K	1004.08
293.15 K	1003.12
298.15 K	1001.89
303.15 K	1000.44

N[C@@H](Cc1ccccc1)C(=O)O [L-phenylalanine] + O
mass density [kg/m3]
Settings	m1 = 0.0102	m1 = 0.0203	m1 = 0.0293	m1 = 0.0398	m1 = 0.0509	m1 = 0.0606	m1 = 0.061	m1 = 0.0736	m1 = 0.0915	m1 = 0.1028
283.15 K	1000.19	1000.64	1001.05	1001.53	1002.02	1002.47	1002.49	1003.05	1003.87	1004.36
288.15 K	999.59	1000.04	1000.44	1000.91	1001.39	1001.83	1001.85	1002.4	1003.2	1003.69
293.15 K	998.69	999.13	999.52	999.98	1000.46	1000.9	1000.91	1001.45	1002.24	1002.73
298.15 K	997.52	997.95	998.35	998.8	999.27	999.7	999.71	1000.25	1001.03	1001.5
303.15 K	996.12	996.54	996.93	997.38	997.85	998.27	998.28	998.81	999.58	1000.05

O [water] + CCCCn1cc[n+](C)c1C.[Br-]
Settings	mass density [kg/m3]
283.15 K, m2 = 0	999.72

O [water] + N[C@@H](Cc1ccccc1)C(=O)O
Settings	mass density [kg/m3]
283.15 K, m2 = 0	999.72
